The values below come from US12612410B2 (CHILDREN'S HOSPITAL MEDICAL CENTER, priority 2020, dated 2026).

By IC50 is commonly meant the concentration at which inhibition is half-maximal. Low readings indicate higher potency, high ones lower potency.

Common to all, as to format: biochemical
Details in all cases: isolated kinase, 33P-ATP

One experiment concerns the target T1, IRAK1 (Homo sapiens, UniProt P51617).
T1 construct: purchased Reaction Biology (RBC), HotSpot kinase assay
The experiment is described as follows: RBC HotSpot Kinase Assay, IRAK1. The source says: (§1) This assay uses the isolated kinase enzyme. This assay is very useful for determining competition of the inhibitor for ATP and/or substrates and for measuring the kinetics of enzyme inhibition. […] Unlike kinase binding assays that measure competition for ATP, the HotSpot Kinase Assay is a functional assay that measures catalytic activity; as such it measures relative functional potency regardless of the mechanism of enzyme inhibition. This assay uses the form of the various enzymes that are easiest to express, which may not necessarily be the form of the enzyme that exist in the cell. (Sometimes the carboxy terminus has been truncated to aid in expression, or, if it is a receptor kinase, the enzyme itself is isolated from the other parts of the receptor that are involved in regulating kinase activity.)
(§2) The reagent used was as follows: Base Reaction buffer; 20 mM Hepes (pH 7.5), 10 mM MgCl2, 1 mM EGTA, 0.01% Brij35, 0.02 mg/ml BSA, 0.1 mM Na3VO4, 2 mM DTT, 1% DMSO. Required cofactors were added individually to each kinase reaction.
(§3) The reaction procedure was as follows: • 1) Substrates were prepared in freshly prepared Reaction Buffer. • 2) Any required cofactors were delivered to the substrate solution above. • 3) Kinase was delivered into the substrate solution and gently mixed. • 4) Compounds were delivered in 100% DMSO into the kinase reaction mixture by Acoustic technology (Echo550; nanoliter range), followed by incubation for 20 min at room temp. • 5)^33P-ATP was delivered into the reaction mixture to initiate the reaction. • 6) The mixture was incubated for 2 hours at room temperature. • 7) Kinase activity was detected by P81 filter-binding method.

The next experiment deals with T2, IRAK4 (Homo sapiens, UniProt Q9NWZ3).
T2 sequence (Q9NWZ3 1-460): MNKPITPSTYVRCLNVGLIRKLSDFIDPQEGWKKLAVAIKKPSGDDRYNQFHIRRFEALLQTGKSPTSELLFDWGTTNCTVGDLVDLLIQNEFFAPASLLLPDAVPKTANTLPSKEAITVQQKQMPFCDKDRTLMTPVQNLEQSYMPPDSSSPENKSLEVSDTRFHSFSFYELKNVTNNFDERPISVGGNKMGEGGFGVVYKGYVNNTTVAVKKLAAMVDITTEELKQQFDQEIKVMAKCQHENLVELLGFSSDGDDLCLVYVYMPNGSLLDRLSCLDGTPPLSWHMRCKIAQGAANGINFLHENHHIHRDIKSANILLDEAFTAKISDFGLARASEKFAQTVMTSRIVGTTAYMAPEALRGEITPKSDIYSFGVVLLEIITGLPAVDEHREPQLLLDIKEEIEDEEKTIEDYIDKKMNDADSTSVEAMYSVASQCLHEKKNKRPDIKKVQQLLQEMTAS
As to the kind of experiment: RBC HotSpot Kinase Assay, IRAK4. Further details: purchased Reaction Biology (RBC), HotSpot kinase assay.
Text: as §1, §2, §3

In another experiment the target is T3, FLT3 (Homo sapiens, UniProt P36888).
T3 sequence (P36888 27-993): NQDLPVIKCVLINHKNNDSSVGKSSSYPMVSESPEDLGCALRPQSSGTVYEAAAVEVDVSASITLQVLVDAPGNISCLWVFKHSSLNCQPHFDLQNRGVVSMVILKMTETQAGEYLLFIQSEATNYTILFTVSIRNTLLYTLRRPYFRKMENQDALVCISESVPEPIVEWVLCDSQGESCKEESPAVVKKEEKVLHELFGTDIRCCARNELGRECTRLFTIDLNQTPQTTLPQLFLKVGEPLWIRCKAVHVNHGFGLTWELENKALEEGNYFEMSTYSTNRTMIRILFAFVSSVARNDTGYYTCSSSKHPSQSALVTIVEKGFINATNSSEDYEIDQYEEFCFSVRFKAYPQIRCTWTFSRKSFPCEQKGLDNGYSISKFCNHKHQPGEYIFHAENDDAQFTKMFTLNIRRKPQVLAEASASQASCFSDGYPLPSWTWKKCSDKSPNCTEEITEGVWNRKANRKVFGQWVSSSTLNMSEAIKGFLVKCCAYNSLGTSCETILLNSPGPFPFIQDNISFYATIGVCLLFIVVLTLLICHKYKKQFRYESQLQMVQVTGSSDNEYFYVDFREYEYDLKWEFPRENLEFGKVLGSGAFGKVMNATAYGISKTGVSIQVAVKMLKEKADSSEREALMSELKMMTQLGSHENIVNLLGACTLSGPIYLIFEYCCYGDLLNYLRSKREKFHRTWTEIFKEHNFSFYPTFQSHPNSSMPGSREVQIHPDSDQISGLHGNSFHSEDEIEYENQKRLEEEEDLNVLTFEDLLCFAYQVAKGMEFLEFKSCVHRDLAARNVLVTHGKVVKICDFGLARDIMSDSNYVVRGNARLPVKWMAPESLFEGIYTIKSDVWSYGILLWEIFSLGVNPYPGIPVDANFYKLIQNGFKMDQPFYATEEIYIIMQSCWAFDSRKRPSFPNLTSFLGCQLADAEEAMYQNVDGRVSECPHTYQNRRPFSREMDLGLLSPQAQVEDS
The experiment is described as follows: RBC HotSpot Kinase Assay, FLT3. The arrangement: purchased Reaction Biology (RBC), HotSpot kinase assay.
Text: as §1, §2, §3

T1 sequence (P51617 whole entry): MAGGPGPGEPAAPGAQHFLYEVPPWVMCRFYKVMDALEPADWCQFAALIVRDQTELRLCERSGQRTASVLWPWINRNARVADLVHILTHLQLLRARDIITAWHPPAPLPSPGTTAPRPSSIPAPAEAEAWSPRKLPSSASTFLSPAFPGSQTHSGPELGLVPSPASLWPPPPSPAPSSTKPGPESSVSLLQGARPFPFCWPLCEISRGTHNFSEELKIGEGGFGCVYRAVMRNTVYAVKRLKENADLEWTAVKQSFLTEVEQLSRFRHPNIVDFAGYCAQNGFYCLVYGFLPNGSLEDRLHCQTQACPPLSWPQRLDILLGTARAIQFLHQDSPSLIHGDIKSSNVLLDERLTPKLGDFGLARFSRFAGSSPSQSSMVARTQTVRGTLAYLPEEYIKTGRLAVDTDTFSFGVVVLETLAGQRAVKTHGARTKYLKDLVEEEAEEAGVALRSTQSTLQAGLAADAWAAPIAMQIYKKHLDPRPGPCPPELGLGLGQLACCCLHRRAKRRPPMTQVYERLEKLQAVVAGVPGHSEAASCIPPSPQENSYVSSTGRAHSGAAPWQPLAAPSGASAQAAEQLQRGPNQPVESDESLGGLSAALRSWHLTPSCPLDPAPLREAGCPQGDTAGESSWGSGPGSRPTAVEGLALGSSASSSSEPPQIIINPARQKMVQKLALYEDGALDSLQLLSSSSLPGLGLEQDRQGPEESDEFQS

With `FC(F)(F)COc1cn2c(-c3cccc(N[C@@H]4CCCNC4)n3)cnc2cn1` [Compound 37, (R)-N-(piperidin-3-yl)-6-(6-(2,2,2-trifluoroethoxy)imidazo[1,2-a]pyrazin-3-yl)pyridin-2-amine], the IC50 against IRAK1 is 273 nM; against IRAK4, 11 nM; at FLT3, under 0.5 nM.

As for `FC(F)(F)COc1cn2c(-c3cccc(N[C@H]4CNC[C@@H]4C(F)(F)F)n3)cnc2cn1` [Compound 39, 6-(6-(2,2,2-trifluoroethoxy)imidazo[1,2-a]pyrazin-3-yl)-N-((3R,4S)-4-(trifluoromethyl)pyrrolidin-3-yl)pyridin-2-amine], the figures for the IC50 on IRAK1, against IRAK4 and against FLT3 were 301 nM, 8 nM and under 0.5 nM, respectively.

On to `F[C@H]1CNCC[C@@H]1Nc1cccc(-c2cnc3cnc(OCC(F)(F)F)cn23)n1` [Compound 41, N-((3S,4S)-3-fluoropiperidin-4-yl)-6-(6-(2,2,2-trifluoroethoxy)imidazo[1,2-a]pyrazin-3-yl)pyridin-2-amine], for which the half-inhibitory concentration (IC50) against IRAK1 was 142 nM; against IRAK4, 110 nM; against FLT3 it was under 0.5 nM.

Regarding `C[C@H]1C[C@@H](Nc2cccc(-c3cnc4cnc(OCC(F)(F)F)cn34)n2)CCN1` [Compound 42, N-((2S,4S)-2-methylpiperidin-4-yl)-6-(6-(2,2,2-trifluoroethoxy)imidazo[1,2-a]pyrazin-3-yl)pyridin-2-amine], the results for the IC50 against IRAK1, on IRAK4 and on FLT3 were 413 nM, 339 nM and 0.6 nM, respectively.

On to `FC(F)n1cc(-c2cn3c(-c4cccc(N[C@@H]5CCCNC5)n4)cnc3cn2)cn1` [Compound 44, (R)-6-(6-(1-(difluoromethyl)-1H-pyrazol-4-yl)imidazo[1,2-a]pyrazin-3-yl)-N-(piperidin-3-yl)pyridin-2-amine], for which the IC50 against IRAK1 is 4280 nM; against IRAK4, 37 nM; against FLT3 it was under 0.5 nM.

Turning to `c1cc(N[C@@H]2CCCNC2)nc(-c2cnc3cnc(-c4cnn(C5CC5)c4)cn23)c1` [Compound 45, (R)-6-(6-(1-cyclopropyl-1H-pyrazol-4-yl)imidazo[1,2-a]pyrazin-3-yl)-N-(piperidin-3-yl)pyridin-2-amine], the IC50 on IRAK1 is 1990 nM; against IRAK4, 12 nM; against FLT3 it was under 0.5 nM.

With `CC(C)(O)Cn1cc(-c2cn3c(-c4cccc(N[C@@H]5CCCNC5)n4)cnc3cn2)cn1` [Compound 46, (R)-2-methyl-1-(4-(3-(6-(piperidin-3-ylamino)pyridin-2-yl)imidazo[1,2-a]pyrazin-6-yl)-1H-pyrazol-1-yl)propan-2-ol], the IC50 is 3640 nM at IRAK1, 8 nM on IRAK4 and under 0.5 nM against FLT3.

`c1cc(N[C@@H]2CCCNC2)nc(-c2cnc3cnc(-c4cnn5ccccc45)cn23)c1` [Compound 47]: the figures for the IC50 against IRAK1, against IRAK4 and on FLT3 were 154 nM, 7 nM and under 0.5 nM, respectively.

As for `FC(F)n1cc(-c2cn3c(-c4cccc(N[C@H]5CNC[C@@H]5F)n4)cnc3cn2)cn1` [Compound 53, 6-(6-(1-(difluoromethyl)-1H-pyrazol-4-yl)imidazo[1,2-a]pyrazin-3-yl)-N-((3S,4S)-4-fluoropyrrolidin-3-yl)pyridin-2-amine], the IC50 at IRAK1 was determined as 1250 nM; at IRAK4, 12 nM; at FLT3, 0.6 nM.

With `CC(C)(O)Cn1cc(-c2cn3c(-c4cccc(N[C@H]5CNC[C@@H]5F)n4)cnc3cn2)cn1` [Compound 54, 1-(4-(3-(6-(((3S,4S)-4-fluoropyrrolidin-3-yl)amino)pyridin-2-yl)imidazo[1,2-a]pyrazin-6-yl)-1H-pyrazol-1-yl)-2-methylpropan-2-ol], the figures for the IC50 against IRAK1, at IRAK4 and against FLT3 were 2290 nM, 5 nM and under 0.5 nM, respectively.

For the compound `F[C@H]1CNC[C@@H]1Nc1cccc(-c2cnc3cnc(-c4cnn5ccccc45)cn23)n1` [Compound 55, N-((3S,4S)-4-fluoropyrrolidin-3-yl)-6-(6-(pyrazolo[1,5-a]pyridin-3-yl)imidazo[1,2-a]pyrazin-3-yl)pyridin-2-amine], the IC50 against IRAK1 is 304 nM; against IRAK4 it was under 0.5 nM; at FLT3, under 0.5 nM.

With `COc1cn2c(-c3cccc(N[C@H]4CNC[C@@H]4F)n3)cnc2cn1` [Compound 56, N-((3S,4S)-4-fluoropyrrolidin-3-yl)-6-(6-methoxyimidazo[1,2-a]pyrazin-3-yl)pyridin-2-amine], the IC50 on IRAK1 worked out at 840 nM; against IRAK4, 4 nM; against FLT3 it was 0.7 nM.

`CC1(C)CCN(c2cn3c(-c4cccc(N[C@H]5CNC[C@@H]5F)n4)cnc3cn2)C1=O` [Compound 61, 1-(3-(6-(((3S,4S)-4-fluoropyrrolidin-3-yl)amino)pyridin-2-yl)imidazo[1,2-a]pyrazin-6-yl)-3,3-dimethylpyrrolidin-2-one]: the figures for the IC50 against IRAK1, against IRAK4 and on FLT3 were 3540 nM, 46 nM and 2 nM, respectively.

Regarding `CC1(C)CC(=O)N(c2cn3c(-c4cccc(N[C@H]5CNC[C@@H]5F)n4)cnc3cn2)C1` [Compound 63, 1-(3-(6-(((3S,4S)-4-fluoropyrrolidin-3-yl)amino)pyridin-2-yl)imidazo[1,2-a]pyrazin-6-yl)-4,4-dimethylpyrrolidin-2-one], the IC50 at IRAK1 was 3430 nM; against IRAK4 it was 238 nM; against FLT3 it was under 0.5 nM.

Turning to `OC1(C(F)(F)F)CCN(c2cn3c(-c4cccc(N[C@H]5CNC[C@@H]5F)n4)cnc3cn2)C1` (stereo partly drawn) [Compound 66, 1-(3-(6-(((3S,4S)-4-fluoropyrrolidin-3-yl)amino)pyridin-2-yl)imidazo[1,2-a]pyrazin-6-yl)-3-(trifluoromethyl)pyrrolidin-3-ol], the half-inhibitory concentration (IC50) on IRAK1 was determined as 6020 nM; at IRAK4, 4 nM; on FLT3 it was 1 nM.

For the compound `F[C@H]1CNC[C@@H]1Nc1cccc(-c2cnc3cnc(N4CCC(F)(F)C4)cn23)n1` [Compound 67, 6-(6-(3,3-difluoropyrrolidin-1-yl)imidazo[1,2-a]pyrazin-3-yl)-N-((3S,4S)-4-fluoropyrrolidin-3-yl)pyridin-2-amine], the concentration for half-maximal inhibition (IC50) was 8190 nM against IRAK1, 4 nM against IRAK4 and 0.7 nM against FLT3.

In the case of `c1cc(N[C@@H]2CCCNC2)nc(-c2cnc3cnccn23)c1` [Compound 69, (R)-6-(imidazo[1,2-a]pyrazin-3-yl)-N-(piperidin-3-yl)pyridin-2-amine], the figures for the IC50 at IRAK1, on IRAK4 and at FLT3 were 2030 nM, 15 nM and under 0.5 nM, respectively.

For the compound `F[C@H]1CCNC[C@@H]1Nc1cccc(-c2cnc3cnccn23)n1` [Compound 70, N-((3S,4S)-4-fluoropiperidin-3-yl)-6-(imidazo[1,2-a]pyrazin-3-yl)pyridin-2-amine], the values for the IC50 against IRAK1, on IRAK4 and on FLT3 were 696 nM, 20 nM and under 0.5 nM, respectively.
